Tests used:
[1] = test system: COS7; assay: Toxicity of NAC-MTN vs CD-MTN and MTN, MTT (Example 9, EX042105); assay type: cell-based, green monkey
Procedure: (§1) FIG. 4. […] The relative toxicity of NAC-MTN was compared with MTN and CD-MTN in four cell lines, MCF7(breast cancer), COS7green monkey kidney (SV40 transformed), 3T3 (mouse fibroblast), and BHK21(hamster kidney). Cells were treated with identical amounts of MTN formulated as either NAC-MTN, MTN only, or poly-beta-cyclodextrin-sulfylbutylether(CD-MTN). After an incubation period, cell viability was assayed with MTT assay. The differences in toxicity between NAC-MTN and MTN or NAC-MTN and CD-MTN are shown as % difference. Greater percentage difference correlates to more reduction in relative NAC-MTN toxicity.
(§2) MCF7, COS7, 3T3, and BHK21 cells were plated out in duplicate rows of equivalent cell density in 100ul final volume. Initial cell densities were 2000 cells/well.
(§3) Preparing NAC-MTN, CD-MTN, and MTN only. Combined 180 ul of 0.05 mg/ml MTN with […] 0.1 mg/ml herring sperm genomic DNA (HSGDNA, Promega), 1500 ul of 2× DMEM media containing 20% FBS to give 3.0 ml final volume and 12% final drug loading in the dsDNA. For MTN only, 180 ul of MTN was combined with 1320 ul H2O and 1500 ul 2× DMEM. […]
(§4) Aspirated media in plate and replaced with 50 ul of 0.5 mg/ml MTT in 1× media, incubated 3 hours, aspirated, air dried 5 min and dissolved in 100 ul of isopropyl, read OD at A570. […]

[2] = test system: 3T3; assay: as above; assay type: cell-based, mouse
Procedure: as §1, §2, §3, §4

[3] = test system: NIH3T3; assay: Effect of plating time on uptake of NAC-MTN and MTN, fluorescence (Example 11); assay type: cell-based, mouse; settings: cells treated <1 hour after plating
Procedure: The effect of plating time on the differential rates of uptake between NAC-MTN and MTN were assayed in cells treated <1 hour and 24 hours after plating.
On day 1, MCF7, COS7, 3T3, and BHK21 cells were plated out in a standard tissue culture plate. After incubation of 20 minutes samples were added to cells in rows A, C, E, and G. Cells were incubated at 37C in a standard atmosphere of 5%CO2.
On day 2, samples were added to rows D, F, and H and the fluorescence was obtained EX620/EM680 S=80. Samples were removed from A,C,E and G, replaced with media and fluorescence read again. On day 2 observed significant drug toxicity in cells of rows A,C, E, G. Sample addition was postponed in row B since MCF7 were not yet confluent.
On day 3, added samples to cells in row B containing confluent MCF7's, removed samples from rows D, F, and H replaced with media and read fluorescence.
Fluorescence data from cells taken after removal of media was used to quantitate total MTN retained in the cells. Fluorescence data were converted to mg/ml MTN using a standard curve prepared with free MTN or NAC-MTN.
The percentage difference in fluorescence between cells treated with NAC-MTN or MTN alone was used to compare relative drug uptake.

[4] = intravenous administration; cited from earlier work
[5] = 2 uM final MTN, MTT 48 hours after adding samples

O=C1c2c(O)ccc(O)c2C(=O)c2c(NCCNCCO)ccc(NCCNCCO)c21 [MTN, mitoxantrone]
% tox. relative to media only [1, 5]: 56.65%
toxic effect ([1]; after 24 hours, 2 uM MTN): no toxic effect
% tox. relative to media only [2, 5]: 37.57%
toxic effect ([2]; after 24 hours, 2 uM MTN): no toxic effect
FLUOR (MTN fluorescence in cells) [3]: 18530
elimination half life [4]: 12 days

Source: patent US20070225213A1, “Nucleic acid carriers for delivery of therapeutic agents” (priority 2006, published 2007)
